According to publication PMC12132946, “Isoflurane activates the type 1 ryanodine receptor to induce anesthesia in mice” (PLOS Biology, 2025):
Each block holds one compound with its values, some of them ahead of it.

Assays:
[1] = biological target: T1, type 1 ryanodine receptor (RyR1) (Oryctolagus cuniculus, UniProt P11716); test: intracellular calcium assay in HEK […] stable cell lines; selective over M4000F, RyR2, RyR3; assay type: cell-based; design: full-length rabbit RyR1(WT)
[2] = biological target: T1, type 1 ryanodine receptor (RyR1); test: intracellular calcium assay in HEK […] stable cell line; response lost in M4000F; assay type: cell-based; design: full-length rabbit RyR1
[3] = biological target: T1, type 1 ryanodine receptor (RyR1); test: intracellular calcium assay in HEK […] cells with RyR1 WT and point mutants; assay type: cell-based; design: full-length rabbit RyR1
[4] = biological target: T1, type 1 ryanodine receptor (RyR1); test: intracellular calcium assay in HEK […] stable cell line; compared with M4000F; assay type: cell-based; design: full-length rabbit RyR1(WT)
[5] = biological target: T1, type 1 ryanodine receptor (RyR1); test: intracellular calcium assay in HEK […] cells; caffeine-site point mutants; assay type: cell-based; design: full-length rabbit RyR1
[6] = biological target: T1, type 1 ryanodine receptor (RyR1); test: cell-based; design: full-length rabbit RyR1; species or system HEK 293; fluorescent calcium indicator assay, peak Fmax/F0, tetracycline-induced RyR1 expression, 384-well plate
Description: There are three isoforms of RyRs in mammals (RyR1, RyR2, and RyR3). To systematically examine the pharmacological properties of each isoform, we used HEK 293 cell lines that express rabbit isoforms under tetracycline regulation. These cells were seeded in a 384-well plate and subjected to an assay in which the intracellular calcium levels were measured using a fluorescent calcium indicator upon drug administration (Fig 1B and 1C). While caffeine is a stimulant that antagonizes the adenosine receptors (IC50s on adenosine receptors are ~10 μM), it is also a typical agonist of RyRs activating all isoforms at higher dosages. Caffeine administration caused dose-dependent increases in intracellular calcium levels depending on the tetracycline-mediated expression of each isoform (Figs 1D–1F and S1A). We observed that, while caffeine causes calcium elevation in the nonexpressed controls, most likely due to the presence of endogenous RyRs in HEK 293 cells, the distinct signals in the expressed conditions indicate that each isoform is successfully expressed as functional channels. Supplementary file pbio.3003172.s001.pdf: S1 Fig Increased intracellular calcium by isoflurane is derived from intracellular calcium stores. […] Each agent was given after measuring the baseline fluorescence for 10 s, as indicated by arrows. […]

[7] = biological target: T1, type 1 ryanodine receptor (RyR1); test: intracellular calcium assay in HEK […] stable cell line; assay type: cell-based; design: full-length rabbit RyR1
[8] = biological target: T2, mouse RyR1(WT) (Mus musculus, UniProt E9PZQ0); test: intracellular calcium assay in HEK […] cells; response lost in M4003F; assay type: cell-based
T2 construct: full-length mouse RyR1

[9] = biological target: T1, type 1 ryanodine receptor (RyR1); test: intracellular calcium (Cal-520) assay in HEK […] cells with tetracycline-induced RyR1; chimeras and point mutants; assay type: cell-based; design: full-length rabbit RyR1; RyR1 Q3889-S4213 necessary and sufficient for the response
[10] = biological target: T1, type 1 ryanodine receptor (RyR1); test: intracellular calcium assay in HEK […] cells; selectivity over M4000F; assay type: cell-based; design: full-length rabbit RyR1

T1 sequence (P11716 whole entry): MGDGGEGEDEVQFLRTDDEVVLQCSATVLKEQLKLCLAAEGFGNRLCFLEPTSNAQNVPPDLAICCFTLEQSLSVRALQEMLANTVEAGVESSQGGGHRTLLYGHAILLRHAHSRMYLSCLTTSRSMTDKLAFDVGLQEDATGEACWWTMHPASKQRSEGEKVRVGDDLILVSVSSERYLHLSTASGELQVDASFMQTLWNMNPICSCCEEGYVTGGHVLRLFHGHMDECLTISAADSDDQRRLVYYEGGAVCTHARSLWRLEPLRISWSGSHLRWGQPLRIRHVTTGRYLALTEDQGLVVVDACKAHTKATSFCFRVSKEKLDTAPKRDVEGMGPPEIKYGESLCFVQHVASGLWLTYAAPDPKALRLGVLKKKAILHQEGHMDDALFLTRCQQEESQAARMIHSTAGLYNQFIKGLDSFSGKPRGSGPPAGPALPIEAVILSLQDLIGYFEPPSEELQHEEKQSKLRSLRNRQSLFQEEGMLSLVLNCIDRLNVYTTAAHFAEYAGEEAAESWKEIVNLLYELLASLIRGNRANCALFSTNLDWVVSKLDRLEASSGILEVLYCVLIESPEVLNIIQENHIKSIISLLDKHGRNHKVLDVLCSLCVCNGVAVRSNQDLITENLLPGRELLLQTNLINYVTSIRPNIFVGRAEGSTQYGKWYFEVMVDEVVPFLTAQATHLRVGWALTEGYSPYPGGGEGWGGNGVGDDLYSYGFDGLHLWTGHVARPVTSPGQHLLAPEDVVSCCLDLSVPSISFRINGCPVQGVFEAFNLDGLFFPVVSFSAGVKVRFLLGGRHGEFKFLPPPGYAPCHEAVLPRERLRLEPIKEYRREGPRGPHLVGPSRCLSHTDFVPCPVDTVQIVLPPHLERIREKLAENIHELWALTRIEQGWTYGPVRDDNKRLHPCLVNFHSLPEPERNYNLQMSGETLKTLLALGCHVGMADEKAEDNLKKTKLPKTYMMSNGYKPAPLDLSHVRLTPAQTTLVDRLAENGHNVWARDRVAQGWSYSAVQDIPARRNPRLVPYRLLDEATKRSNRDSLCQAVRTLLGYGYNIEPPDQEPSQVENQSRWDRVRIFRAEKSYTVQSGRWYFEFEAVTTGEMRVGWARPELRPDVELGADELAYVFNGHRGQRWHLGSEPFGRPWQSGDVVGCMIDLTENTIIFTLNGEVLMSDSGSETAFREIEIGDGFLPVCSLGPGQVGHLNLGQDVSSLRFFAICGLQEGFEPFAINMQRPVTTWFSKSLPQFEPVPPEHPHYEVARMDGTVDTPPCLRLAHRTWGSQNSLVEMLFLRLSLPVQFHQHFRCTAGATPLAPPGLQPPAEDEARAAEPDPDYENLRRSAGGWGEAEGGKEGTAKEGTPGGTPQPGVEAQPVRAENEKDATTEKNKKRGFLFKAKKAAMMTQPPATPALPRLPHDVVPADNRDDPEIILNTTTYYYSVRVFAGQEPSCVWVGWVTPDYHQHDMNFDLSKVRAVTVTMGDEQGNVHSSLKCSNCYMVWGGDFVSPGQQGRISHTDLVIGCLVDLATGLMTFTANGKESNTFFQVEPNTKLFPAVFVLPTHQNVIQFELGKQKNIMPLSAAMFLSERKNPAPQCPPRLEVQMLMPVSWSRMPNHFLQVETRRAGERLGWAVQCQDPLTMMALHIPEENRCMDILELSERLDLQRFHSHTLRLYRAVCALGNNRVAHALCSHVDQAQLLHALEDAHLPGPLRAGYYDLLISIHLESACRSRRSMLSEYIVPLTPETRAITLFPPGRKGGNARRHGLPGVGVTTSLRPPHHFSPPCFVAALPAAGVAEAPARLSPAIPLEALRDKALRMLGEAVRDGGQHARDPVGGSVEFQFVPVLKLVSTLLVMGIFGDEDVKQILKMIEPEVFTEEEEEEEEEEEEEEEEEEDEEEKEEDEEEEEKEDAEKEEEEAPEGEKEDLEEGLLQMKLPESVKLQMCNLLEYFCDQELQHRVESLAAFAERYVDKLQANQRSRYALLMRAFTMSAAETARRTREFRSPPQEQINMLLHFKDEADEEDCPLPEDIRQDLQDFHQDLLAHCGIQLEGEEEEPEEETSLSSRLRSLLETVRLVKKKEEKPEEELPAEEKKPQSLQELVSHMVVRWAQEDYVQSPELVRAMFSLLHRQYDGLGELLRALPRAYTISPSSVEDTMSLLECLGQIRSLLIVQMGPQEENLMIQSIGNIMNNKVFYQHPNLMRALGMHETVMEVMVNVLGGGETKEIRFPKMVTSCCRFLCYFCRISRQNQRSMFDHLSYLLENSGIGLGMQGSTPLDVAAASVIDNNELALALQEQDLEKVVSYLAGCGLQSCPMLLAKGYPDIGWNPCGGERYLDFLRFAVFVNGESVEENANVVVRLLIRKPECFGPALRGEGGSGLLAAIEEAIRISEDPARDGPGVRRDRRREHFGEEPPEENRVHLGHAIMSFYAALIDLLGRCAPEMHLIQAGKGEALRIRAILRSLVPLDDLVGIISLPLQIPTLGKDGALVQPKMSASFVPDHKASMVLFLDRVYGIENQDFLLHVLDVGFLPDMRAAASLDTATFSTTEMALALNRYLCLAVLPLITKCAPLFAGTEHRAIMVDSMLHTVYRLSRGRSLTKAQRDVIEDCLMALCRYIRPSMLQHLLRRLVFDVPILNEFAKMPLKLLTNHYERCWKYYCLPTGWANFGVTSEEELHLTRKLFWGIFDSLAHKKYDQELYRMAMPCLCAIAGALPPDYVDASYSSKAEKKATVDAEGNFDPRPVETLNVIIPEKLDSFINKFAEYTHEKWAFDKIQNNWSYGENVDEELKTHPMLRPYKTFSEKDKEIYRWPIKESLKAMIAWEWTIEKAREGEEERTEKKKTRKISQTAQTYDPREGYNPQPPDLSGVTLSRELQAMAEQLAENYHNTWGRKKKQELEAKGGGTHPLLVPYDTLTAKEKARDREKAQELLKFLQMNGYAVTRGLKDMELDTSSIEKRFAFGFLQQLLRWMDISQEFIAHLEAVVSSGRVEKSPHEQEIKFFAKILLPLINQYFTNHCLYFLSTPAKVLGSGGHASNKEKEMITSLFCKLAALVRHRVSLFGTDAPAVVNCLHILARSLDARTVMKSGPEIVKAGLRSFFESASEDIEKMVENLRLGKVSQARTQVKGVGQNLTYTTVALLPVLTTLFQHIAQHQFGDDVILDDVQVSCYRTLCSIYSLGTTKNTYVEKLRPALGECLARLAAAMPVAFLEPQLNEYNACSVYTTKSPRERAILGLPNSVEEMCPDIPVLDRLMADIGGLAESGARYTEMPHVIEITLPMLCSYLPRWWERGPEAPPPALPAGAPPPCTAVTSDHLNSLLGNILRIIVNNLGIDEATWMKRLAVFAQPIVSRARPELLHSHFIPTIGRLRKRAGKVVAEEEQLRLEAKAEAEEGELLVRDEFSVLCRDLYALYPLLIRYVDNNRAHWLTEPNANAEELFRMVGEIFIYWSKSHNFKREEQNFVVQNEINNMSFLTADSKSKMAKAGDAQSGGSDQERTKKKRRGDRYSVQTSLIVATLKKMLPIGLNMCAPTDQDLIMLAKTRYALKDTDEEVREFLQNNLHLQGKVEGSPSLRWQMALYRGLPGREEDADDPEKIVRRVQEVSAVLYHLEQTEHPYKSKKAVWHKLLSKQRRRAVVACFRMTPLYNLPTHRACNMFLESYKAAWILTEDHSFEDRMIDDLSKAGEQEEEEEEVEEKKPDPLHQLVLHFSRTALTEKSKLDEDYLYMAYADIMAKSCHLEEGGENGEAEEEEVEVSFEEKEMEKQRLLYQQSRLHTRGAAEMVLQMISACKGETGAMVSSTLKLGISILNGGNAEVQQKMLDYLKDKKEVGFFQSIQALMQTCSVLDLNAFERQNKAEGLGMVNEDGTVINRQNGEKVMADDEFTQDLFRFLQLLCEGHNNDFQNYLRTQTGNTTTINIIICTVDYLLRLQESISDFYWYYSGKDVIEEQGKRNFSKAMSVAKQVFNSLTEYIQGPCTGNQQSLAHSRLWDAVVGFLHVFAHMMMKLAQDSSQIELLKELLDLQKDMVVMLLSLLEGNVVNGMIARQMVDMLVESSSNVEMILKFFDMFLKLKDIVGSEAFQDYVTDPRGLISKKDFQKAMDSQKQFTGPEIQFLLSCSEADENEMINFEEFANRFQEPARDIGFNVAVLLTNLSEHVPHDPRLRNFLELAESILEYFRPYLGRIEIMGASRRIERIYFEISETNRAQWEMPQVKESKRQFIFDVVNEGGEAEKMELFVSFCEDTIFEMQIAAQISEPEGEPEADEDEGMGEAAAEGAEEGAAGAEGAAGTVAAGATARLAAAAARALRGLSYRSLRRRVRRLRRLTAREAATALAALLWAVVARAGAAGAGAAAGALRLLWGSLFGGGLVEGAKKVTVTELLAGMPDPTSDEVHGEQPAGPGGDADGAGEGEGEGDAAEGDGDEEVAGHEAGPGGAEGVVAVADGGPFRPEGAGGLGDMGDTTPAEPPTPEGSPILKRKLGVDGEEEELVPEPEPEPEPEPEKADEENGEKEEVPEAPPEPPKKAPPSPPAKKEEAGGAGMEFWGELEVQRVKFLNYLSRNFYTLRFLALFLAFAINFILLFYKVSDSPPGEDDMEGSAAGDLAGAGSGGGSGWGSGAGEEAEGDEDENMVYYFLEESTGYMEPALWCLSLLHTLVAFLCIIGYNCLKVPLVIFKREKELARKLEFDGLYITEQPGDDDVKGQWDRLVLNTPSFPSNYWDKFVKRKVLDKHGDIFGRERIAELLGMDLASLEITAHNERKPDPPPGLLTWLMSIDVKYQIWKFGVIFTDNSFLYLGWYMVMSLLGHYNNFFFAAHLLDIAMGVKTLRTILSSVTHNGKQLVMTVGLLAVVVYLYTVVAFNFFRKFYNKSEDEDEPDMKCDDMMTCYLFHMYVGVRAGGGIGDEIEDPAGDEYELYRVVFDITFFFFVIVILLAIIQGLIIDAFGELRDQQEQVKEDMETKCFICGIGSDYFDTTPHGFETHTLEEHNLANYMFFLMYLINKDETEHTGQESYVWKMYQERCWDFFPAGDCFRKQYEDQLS

SMILES: Oc1cccc(Br)c1 [3-BP, 3-bromophenol]
intracellular calcium assay in HEK 293 stable cell lines; selective over M4000F, [1]: 3-bromophenol (3-BP) has higher selectivity for RyR1(WT) than RyR1(M4000F), RyR2, or RyR3

SMILES: FCOC(C(F)(F)F)C(F)(F)F [sevoflurane]
intracellular calcium assay in HEK 293 stable cell line; response lost in M4000F [2]: sevoflurane, an inhaled anesthetic with clinical use, activated RyR1 but not RyR2 and RyR3

SMILES: Cc1cc(O)ccc1Cl [4-CmC, 4-chloro-m-cresol]
intracellular calcium assay in HEK 293T cells with RyR1 WT and point mutants [3]: substitution of phenylalanine with alanine (F4062A) substantially reduced the sensitivities to both 4-CmC and isoflurane

SMILES: Oc1ccc(Br)cc1 [4-BP, 4-bromophenol]
EC50 [4]: 4.7 µM

SMILES: Cn1c(=O)c2c(ncn2C)n(C)c1=O [caffeine]
intracellular calcium assay in HEK 293 cells; caffeine-site point mutants [5]: RyR1(W4716I), RyR1(W4716L), and RyR1(F3753A) were insensitive to caffeine but were activated by isoflurane

EC50 [6]: 24 µM
SMILES: CCc1ccc(O)cc1 [4-EP, 4-ethylphenol]

SMILES: FC(F)(F)C(Cl)Br (centres unmarked) [halothane]
EC50 [7]: 288 µM

SMILES: FC(F)OC(Cl)C(F)(F)F (centres unmarked) [isoflurane]
intracellular calcium assay in HEK 293 cells; response lost in M4003F [8]: mouse RyR1(WT) was sensitive to isoflurane, as expected, whereas mouse RyR1(M4003F) was not activated by isoflurane
EC50 [9]: 203 µM

SMILES: Cc1ccc(O)cc1 [4-MP, 4-methylphenol]
intracellular calcium assay in HEK 293 cells; selectivity over M4000F [10]: 4-methylphenol (4-MP) and 4-ethylphenol (4-EP), phenolic chemicals with a methyl or ethyl residue
EC50 [6]: 31 µM
